Molecular target: PD-1/PD-L1 protein/protein interaction (Homo sapiens (Human), UniProt Q9NZQ7)
Assay: PD-1/PD-L1 Homogeneous Time-Resolved Fluorescence (HTRF) Binding Assay
Conditions: recombinant human PD-1 (Fc tag) 3 nM, human PD-L1 (His-tag) 10 nM, 25° C., PBS pH 7.4
Description: Example A. PD-1/PD-L1 Homogeneous Time-Resolved Fluorescence (HTRF) Binding Assay
The assays were conducted in a standard black 384-well polystyrene plate with a final volume of 20 μL. Inhibitors were first serially diluted in DMSO and then added to the plate wells before the addition of other reaction components. The final concentration of DMSO in the assay was 1%. The assays were carried out at 25° C. in the PBS buffer (pH 7.4) with 0.05% Tween-20 and 0.1% BSA. Recombinant human PD-L1 protein (19-238) with a His-tag at the C-terminus was purchased from AcroBiosystems (PD1-H5229). Recombinant human PD-1 protein (25-167) with Fc tag at the C-terminus was also purchased from AcroBiosystems (PD1-H5257). PD-L1 and PD-1 proteins were diluted in the assay buffer and 10 μL was added to the plate well. Plates were centrifuged and proteins were preincubated with inhibitors for 40 minutes. The incubation was followed by the addition of 10 μL of HTRF detection buffer supplemented with Europium cryptate-labeled anti-human IgG (PerkinElmer-AD0212) specific for Fc and anti-His antibody conjugated to SureLight®-Allophycocyanin (APC, PerkinElmer-AD0059H). After centrifugation, the plate was incubated at 25° C. for 60 min. before reading on a PHERAstar FS plate reader (665 nm/620 nm ratio). Final concentrations in the assay were […], 10 nM PD-L1, 1 nM europium anti-human IgG and 20 nM anti-His-Allophycocyanin. IC50 determination was performed by fitting the curve of percent control activity versus the log of the inhibitor concentration using the GraphPad Prism 5.0 software.

Sequence of PD-1/PD-L1 protein/protein interaction (Q9NZQ7 19-238): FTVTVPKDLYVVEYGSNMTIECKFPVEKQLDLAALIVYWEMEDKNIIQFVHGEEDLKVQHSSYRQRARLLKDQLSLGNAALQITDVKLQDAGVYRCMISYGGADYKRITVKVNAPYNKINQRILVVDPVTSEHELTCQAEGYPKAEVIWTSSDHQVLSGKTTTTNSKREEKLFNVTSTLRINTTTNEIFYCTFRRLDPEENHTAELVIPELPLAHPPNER

Cc1c(NC(=O)c2ccc(CNCCO)cn2)cccc1-c1cccc(NC(=O)c2ccc(CNCCO)cn2)c1Cl [Example 1, N,N′-(2-chloro-2′-methylbiphenyl-3,3′-diyl)bis(5-((2-hydroxyethylamino)methyl)picolinamide)]
IC50: ≤ 0.01 µM

Cc1c(NC(=O)c2ccc(CN3CCCC[C@H]3C(=O)O)cn2)cccc1-c1cccc(NC(=O)c2ccc(CN3CCCC[C@H]3C(=O)O)cn2)c1Cl [Example 2, (2S,2'S)-1,1′-(6,6′-(2-chloro-2′-methylbiphenyl-3,3′-diyl)bis(azanediyl)bis(oxomethylene)bis(pyridine-6,3-diyl))bis(methylene)dipiperidine-2-carboxylic Acid]
IC50: ≤ 0.01 µM

Cc1c(NC(=O)c2ccc(CN3CCN(C)C3=O)cn2)cccc1-c1cccc(NC(=O)c2ccc(CNCCO)cn2)c1Cl [Example 3, N-(2-chloro-2′-methyl-3′-(5-((3-methyl-2-oxoimidazolidin-1-yl)methyl)picolinamido)biphenyl-3-yl)-5-((2-hydroxyethylamino)methyl)picolinamide]
IC50: ≤ 0.01 µM

Cc1c(NC(=O)c2ccc(CN3CCN(C)C3=O)cn2)cccc1-c1cccc(NC(=O)c2ccc(CN3CC[C@@H](O)C3)cn2)c1Cl [Example 4, (R)—N-(2-chloro-2′-methyl-3′-(5-((3-methyl-2-oxoimidazolidin-1-yl)methyl)picolinamido)biphenyl-3-yl)-5-((3-hydroxypyrrolidin-1-yl)methyl)picolinamide]
IC50: ≤ 0.01 µM

Cc1c(NC(=O)c2ccc(CN3CCOC3=O)cn2)cccc1-c1cccc(NC(=O)c2ccc(CNCCO)cn2)c1Cl [Example 5, N-(2-chloro-2′-methyl-3′-(5-((2-oxooxazolidin-3-yl)methyl)picolinamido)biphenyl-3-yl)-5-((2-hydroxyethylamino)methyl)picolinamide]
IC50: ≤ 0.01 µM

Cc1c(NC(=O)c2ccc(CN3CCOC3=O)cn2)cccc1-c1cccc(NC(=O)c2ccc(CN3CC[C@@H](O)C3)cn2)c1Cl [Example 6, (R)—N-(2-chloro-2′-methyl-3′-(5-((2-oxooxazolidin-3-yl)methyl)picolinamido)biphenyl-3-yl)-5-((3-hydroxypyrrolidin-1-yl)methyl)picolinamide]
IC50: ≤ 0.01 µM

Cc1c(NC(=O)c2ccc(CN3CCCC[C@H]3C(=O)O)cn2)cccc1-c1cccc(NC(=O)c2ccc(CNCCO)cn2)c1Cl [Example 7, (S)-1-((6-(2′-chloro-3′-(5-((2-hydroxyethylamino)methyl)picolinamido)-2-methylbiphenyl-3-ylcarbamoyl)pyridin-3-yl)methyl)piperidine-2-carboxylic Acid]
IC50: ≤ 0.01 µM

Cc1c(NC(=O)c2ccc(CN3CC[C@H](C(=O)O)C3)cn2)cccc1-c1cccc(NC(=O)c2ccc(CN3CC[C@@H](O)C3)cn2)c1Cl [Example 8, (S)-1-((6-(2′-chloro-3′-(5-(((R)-3-hydroxypyrrolidin-1-yl)methyl)picolinamido)-2-methylbiphenyl-3-ylcarbamoyl)pyridin-3-yl)methyl)pyrrolidine-3-carboxylic Acid]
IC50: ≤ 0.01 µM

Cc1c(NC(=O)c2ccc(CN3CCC(C(=O)O)CC3)cn2)cccc1-c1cccc(NC(=O)c2ccc(CN3CC[C@@H](O)C3)cn2)c1Cl [Example 9, (R)-1-((6-(2′-chloro-3′-(5-((3-hydroxypyrrolidin-1-yl)methyl)picolinamido)-2-methylbiphenyl-3-ylcarbamoyl)pyridin-3-yl)methyl)piperidine-4-carboxylic Acid]
IC50: ≤ 0.01 µM

Cc1c(NC(=O)c2ccc(CN3CC(C(=O)O)C3)cn2)cccc1-c1cccc(NC(=O)c2ccc(CN3CC[C@@H](O)C3)cn2)c1Cl [Example 10, (R)-1-((6-(2′-chloro-3′-(5-((3-hydroxypyrrolidin-1-yl)methyl)picolinamido)-2-methylbiphenyl-3-ylcarbamoyl)pyridin-3-yl)methyl)azetidine-3-carboxylic Acid]
IC50: ≤ 0.01 µM

O=C(Nc1cccc(-c2cccc(NC(=O)c3nc4c(s3)CNCC4)c2F)c1Cl)c1ccc(CN2CCCC[C@H]2C(=O)O)cn1 [Example 11, (S)-1-((6-((2-chloro-2′-fluoro-3′-(4,5,6,7-tetrahydrothiazolo[5,4-c]pyridine-2-carboxamido)-[1,1′-biphenyl]-3-yl)carbamoyl)pyridin-3-yl)methyl)piperidine-2-carboxylic Acid]
IC50: ≤ 0.01 µM

Cc1cc(C(=O)Nc2cccc(-c3cccc(NC(=O)c4ccc(CN5CCCC5)cn4)c3Cl)c2C)ncc1CN1CCCC[C@H]1C(=O)O [Example 12, (S)-1-((6-((2′-chloro-2-methyl-3′-(5-(pyrrolidin-1-ylmethyl)picolinamido)-[1,1′-biphenyl]-3-yl)carbamoyl)-4-methylpyridin-3-yl)methyl)piperidine-2-carboxylic acid]
IC50: ≤ 0.01 µM

COc1ccnc(C(=O)Nc2cccc(-c3cccc(NC(=O)c4cc(C)c(CN5CCCC[C@H]5C(=O)O)cn4)c3Cl)c2C)c1 [Example 13, (S)-1-((6-((2-chloro-3′-(4-methoxypicolinamido)-2′-methyl-[1,1′-biphenyl]-3-yl)carbamoyl)-4-methylpyridin-3-yl)methyl)piperidine-2-carboxylic Acid]
IC50: ≤ 0.01 µM
